Experimental data from ChEMBL document CHEMBL1777782, “Indole 5-carboxamide Thumb Pocket I inhibitors of HCV NS5B polymerase with nanomolar potency in cell-based subgenomic replicons (part 2): central amino acid linker and right-hand-side SAR studies” (Bioorg Med Chem Lett, 2011).
≈ marks a conversion by molar mass, not a printed value.

Assays:
[1] = Selectivity ratio for mammalian DNA-dependent RNA polymerase II to HCV 1b NS5B RNA dependent RNA polymerase
Hepatitis C virus = assay: Antiviral activity against Hepatitis C virus genotype 1b infected in human Huh-7 cells assessed as inhibition of viral replication after 72 hrs; type: functional, organism-based, Hepacivirus hominis; settings: Huh-7, 72 h
[2] = Selectivity ratio for polio virus RNA-dependent RNA polymerase to HCV 1b NS5B RNA dependent RNA polymerase
[3] = Half life in human liver microsomes at 10 uM
physchem = settings: phosphate buffer, pH 7.2
[4] = Inhibition of HCV 1b NS5B RNA dependent RNA polymerase by scintillation proximity assay; parameters: species or system Hepacivirus hominis
[5] = Permeability across apical to basolateral side in human Caco2 cells; settings: Caco-2

| Compound | Ratio [1] | EC50 (Hepatitis C virus) [nM] | Ratio [2] | half-life at 10 µM ([3]; liver microsomes) [min] | solubility thermodynamic at 24 h (physchem) [µg/mL] | IC50 [4] [nM] | Papp A→B [5] [×10⁻⁶ cm/s] | half-life at 10 µM ([3]; microsomes) [min] |
| --- | --- | --- | --- | --- | --- | --- | --- | --- |
| Cn1c(C(N)=O)cc2cc(NC(=O)C(C)(C)NC(=O)c3ccc4c(C5CCCCC5)c(-c5ccccn5)n(C)c4c3)ccc21 | > 150 | 97 | > 150 | 21 | < 0.1 | 165 |  |  |
| CCN1CC[C@@](NC(=O)c2ccc3c(C4CCCCC4)c(-c4ccccn4)n(C)c3c2)(C(=O)Nc2ccc(/C=C/C(=O)O)cc2)C1 | > 150 | 50 | > 150 | 61 |  | 23 | 5.6 |  |
| Cn1c(-c2ccccn2)c(C2CCCCC2)c2ccc(C(=O)NC(C)(C)C(=O)Nc3ccc(-c4nc(C(N)=O)cs4)cc3)cc21 | > 150 | 150 | > 150 | 16 | < 0.1 | 317 |  |  |
| Cn1c(-c2ccccn2)c(C2CCCCC2)c2ccc(C(=O)NC(C)(C)C(=O)Nc3ccc(NC(=O)C(=O)O)cc3)cc21 | > 150 | 2500 | > 150 |  |  | 34 |  |  |
| Cn1c(-c2ccccn2)c(C2CCCCC2)c2ccc(C(=O)NC3(C(=O)Nc4ccc(S(N)(=O)=O)cc4)CCC3)cc21 | > 150 | 350 | > 150 | 15 | < 0.1 | 312 |  |  |
| Cc1c(C(N)=O)sc2ccc(NC(=O)C3(NC(=O)c4ccc5c(C6CCCCC6)c(-c6ccccn6)n(C)c5c4)CCC3)cc12 | > 150 | 76 | > 150 | 71 |  | 86 |  |  |
| CC(=O)N1CC[C@@](NC(=O)c2ccc3c(C4CCCCC4)c(-c4ccccn4)n(C)c3c2)(C(=O)Nc2ccc(/C=C/C(=O)O)cc2)C1 | > 150 | 212 | > 150 |  |  | 24 |  |  |
| Cn1c(-c2ccccn2)c(C2CCCCC2)c2ccc(C(=O)NC(C)(C)C(=O)Nc3ccc(-c4ccc(C(N)=O)o4)cc3)cc21 | > 150 | 96 | > 150 | 19 | < 0.1 | 330 |  |  |
| Cn1c(-c2ccccn2)c(C2CCCCC2)c2ccc(C(=O)NC3(C(=O)Nc4ccc(/C=C/C(=O)O)cc4)CCNCC3)cc21 | > 150 | 2000 | > 150 |  |  | 13 |  |  |
| CC(C)(NC(=O)c1ccc2c(c1)nc(-c1ccoc1)n2C1CCCCC1)C(=O)Nc1ccc(/C=C/C(=O)O)cc1 |  |  |  |  |  | 40 |  |  |
| Cc1c(C(=O)O)sc2ccc(NC(=O)[C@]3(NC(=O)c4ccc5c(C6CCCCC6)c(-c6ccccn6)n(C)c5c4)CCCNC3)cc12 |  | 60 |  |  |  | 35 |  | 93 |
| Cn1c(-c2ccccn2)c(C2CCCCC2)c2ccc(C(=O)N[C@]3(C(=O)Nc4ccc(/C=C/C(=O)O)cc4)CCCNC3)cc21 | > 150 | 220 | > 150 |  |  | 40 |  |  |
| Cn1c(-c2ccccn2)c(C2CCCCC2)c2ccc(C(=O)NC3(C(=O)Nc4ccc(/C=C/C(=O)O)cc4)CCCCC3)cc21 | > 150 | 129 | > 150 | 61 | 5 (≈ 8.27 µM) | 194 |  |  |
| Cn1c(-c2ccccn2)c(C2CCCCC2)c2ccc(C(=O)NC3(C(=O)Nc4ccc(-c5cnc(N)nc5)cc4)CCC3)cc21 | > 150 | 180 | > 150 |  | 0.9 (≈ 1.5 µM) | 745 |  |  |
| CN1CCCC(NC(=O)c2ccc3c(C4CCCCC4)c(-c4ccccn4)n(C)c3c2)(C(=O)Nc2ccc(/C=C/C(=O)O)cc2)C1 (racemic) | > 150 | 66 | > 150 |  |  | 43 |  |  |
| CN1CCC(NC(=O)c2ccc3c(C4CCCCC4)c(-c4ccccn4)n(C)c3c2)(C(=O)Nc2ccc3sc(C(=O)O)cc3c2)CC1 | > 150 | 220 | > 150 |  |  | 17 |  |  |
